Values joined by “and” are separate entries in the source; they are usually repeats but may differ in a detail not shown here. Identical values can stand only once. Square brackets hold non-standard residues; d marks the D form. * marks the point of attachment. Myristoyl = CCCCCCCCCCCCCC(=O)*; Nle = CCCC[C@H](N)C(=O)O
Tested on: Mice/Balb/c, hind limb ischemia model
Assay: Mouse hind limb ischemia/angiogenesis model
Assay type: in vivo
Text: The object of this study was to determine whether administration of the test items, peptides AB-017 (SEQ ID NO: 12) and 725-106 (positive control, SEQ ID NO: 2) can enhance angiogenesis, subsequently inducing clinical and motor function improvement in a hind limb ischemia model. The principle of the test is based on changes in perfusion rate, clinical signs and histological parameters (necrosis) following administration of the test compounds.
Each tested group included 4-7 mice per group. Intraperitoneal (i.p) injection is the preferred route of administration of the test items in this model and DMSO/PEG is used as vehicle to prepare the test item solution.
Tested peptides were dissolved in 100% DMSO. Thereafter Polyethylene glycol (PEG) 400 is added to the solution. Sterile water was used to dilute to a final concentration of 0.5% DMSO/10% PEG 400/H2O to result 2 mg/ml. The solution is prepared and divided into marked aliquots and stored at −70° C.
Species/Strain: Mice/Balb/c male˜8 weeks
Animals were housed under standard laboratory conditions, air conditioned and filtered (HEPA F6/6) with adequate fresh air supply (31 air changes/hour). Animals were kept in a climate controlled environment. Temperatures range is between 20-24° C. and RH is between 30-70% with 12 hours light and 12 hours dark cycle. Animals were housed in polyethylene cages (7/cage) measuring 35×30×15 cm, with stainless steel top grill facilitating pelleted food and drinking water in plastic bottle; bedding: steam sterilized clean paddy husk. Bedding material is changed along with the cage at least twice a week. Diet: Animals are fed ad libitum a commercial rodent diet (Teklad Certified Global 18% Protein Diet cat #: 106S8216). Animals have free access to drinking water obtained from the municipality supply. Surgical Procedure: Anesthesia: Isoflurane 1.5-3% in a mixture of O2/N2O, under spontaneous respiration. All four limbs of the animal were taped down in order to facilitate the animal for surgery. Both hind legs of the animals are shaved and disinfected. On the operated leg, the right leg in all animals, an incision was made from the inguinal area to the proximity of the knee. The femoral vein/artery/nerve were exposed. The artery is dissected free from the vein, nerve and surrounding fascia. Distal to its bifurcation with the profound femoral artery, using 6-0 silk suture the artery is ligated twice, and thereafter transected between these two points (see prox-A-group model appendix I). The surgical wound is closed with 6-0 silk and the mouse is returned to its cage. The left leg is untreated control in all animals. Exclusion criteria: Only mice, whose mean flux measurement post surgery is […] and ≦50% of the pre surgical measurement, are incorporated into the study. Mice whose mean flux measurement post surgery out of this range were excluded from the study.
[formula] Drug administration: All animals were dosed by IP administration at a dose volume of 10 ml/kg.
Tests and Evaluation: Body weight: Body weights were measured prior to surgery, prior to each dosing, and prior to necropsy. Blood flow measurement: Using a Laser Doppler apparatus (Perimed PeriScan PIM II System, Technical manual available at test facility) Blood flow was measured (operated leg & control leg) while the legs are in their natural resting position at the following time points: Before surgery (after shaving) & Post surgery (Day 0); Day 1; Day 8; Day 15; Day 22; and Day 29. Each time point for each mouse consists of three measurements. Blood flow was measured, additionally, in first 10 animals at Pre before shaving. […]

Myr-Gly-Nle-Arg-Pro-Tyr-NH2 (Myristoyl-G[Nle]RPY-NH2; SMILES CCCCCCCCCCCCCC(=O)NCC(=O)N[C@@H](CCCC)C(=O)N[C@@H](CCCNC(=N)N)C(=O)N1CCC[C@H]1C(=O)N[C@@H](Cc1ccc(O)cc1)C(N)=O) [AB-017]
perfusion, leg function and leg necrosis (in words) (20 mg/kg IP twice weekly for 4 weeks, vs vehicle control and 725-106): significant improvement of the ischemic leg
Functional evaluation at day 15 (individual mouse) (20 mg/kg IP twice weekly, function score 0 (flexing the toes) to 3 (dragging of foot), one value per mouse, listed as AB-107): 3.0 (2×) and 2.0 and 0.0 (4×)
Hind limb ischemia evaluation at day 15, Average (20 mg/kg IP twice weekly, group average of ischemic score): 0.7
Hind limb ischemia evaluation at day 15 (individual mouse) (20 mg/kg IP twice weekly, ischemic score 0 (absence of necrosis) to 4 (total hind-limb loss), one value per mouse, listed as AB-107): 2.0 (2×) and 0.0 (4×) and 1.0
